Experimental data taken from the SangsterLogP compilation.

For `CCCCCCCCCC(=O)OC`, which logP is on record?
The logP was 4.42.

With `CCCCCCCCCCCC(=O)OCC(CC)CCCC` (stereo not given) as the molecule, how does the logP read?
The logP was 8.03.

For `CCCCCCCCCCCC(=O)OCCCC`, which logP is on record?
Its logP is 6.51.

With `CCCCC/C=C\C/C=C\CCCCCCCC(=O)OC` as the molecule, how does the logP read?
Its logP is 6.82.

With `CCCCCCCC/C=C\CCCCCCCC(=O)OC` as the molecule, how does the logP read?
The logP was 7.45.

Which logP does the source give for `CC/C=C\C/C=C\C/C=C\CCCCCCCC(=O)OC` here?
Its logP is 6.29.

Which logP does the source give for `CCCCCCCCCCCC(=O)OC` here?
Its logP is 5.41.

With `CCCCCCCCCCCCCCCCCCCC(=O)OC` as the molecule, how does the logP read?
Its logP is 9.3.

With `CCCCCCCCCCCC(=O)OCCC` as the molecule, how does the logP read?
The logP was 6.11.

For `CCCCCCCCCCCCCCCC(=O)OC`, which logP is on record?
Its logP is 7.38.

For `CCCCCCCC/C=C\CCCCCCCCCCCC(=O)OC`, which logP is on record?
The logP was 9.32.

For `CCCCCCCCCCCCCCCCCCCCCC(=O)OC`, which logP is on record?
Its logP is 10.2.

Which logP does the source give for `CCCCCCCCCCCCCCCCCC(=O)OC` here?
Its logP is 8.35.

Which logP does the source give for `CCCCCCCCCCCCCC(=O)OC` here?
The logP was 6.41.

Which logP does the source give for `CCCCCCCCCCCC(=O)OCC` here?
Its logP is 5.71.
